# Source: patent US20260007774A1, “AAV-MEDIATED DELIVERY OF RGS10 TO MICROGLIA” (NEURONITY THERAPEUTICS, INC., priority 2022, published 2026)
# What was measured:
# Control BV2 cells = experiment: TNF-α production after antioxidant treatment, Control BV2 microglia (Meso-Scale Discovery immunoassay); type: cell-based, mouse; details: 5 mM, 18 hours
# Method: (§1) BV2 cells are a type of microglial cell line that was originally derived from a C57/B16 mouse. BV2 cells were immortalized by v-raf/v-myc J2 retrovirus.
# (§2) The role of RGS10 in regulating a response to inflammatory and metabolic stresses was assessed in microglia cells. BV2 cells were grown in culture and RGS10 expression in BV2 cells was diminished by CRISPR/Cas9 RGS10 knockout methods. Control cells were obtained from CRISPR/Cas9 controls.
# (§3) Control and RGS10 KD BV2 cells were allocated into 2 test conditions. The 2 test conditions were 1) Control (no treatment) 2) N-acetylcysteine (NAC) treatment (5 mM). NAC is an antioxidant precursor. NAC is a precursor of L-cysteine that results in biosynthesis of glutathione. Glutathione is a powerful, naturally occurring antioxidant. NAC also acts directly as a scavenger of free radicals, especially oxygen radicals, illustrating extensive antioxidant properties of NAC treatment. NAC treatment in cells leads to a reduction in reactive oxidative species (ROS).
# (§4) Cultured cells were subjected to test conditions for 18 hours and then assayed for production of TNF-α using an immunoassay (Meso-Scale Discovery). Values for TNF-α production in Control and RGS10 KD BV2 cells under Condition 1) were scaled to value of 1.0. Values for TNF-α production after NAC treatment were represented as a % of change relative to Condition 1) levels and were graphed in FIG. 3.
# RGS10 KD BV2 cells = experiment: TNF-α production after antioxidant treatment, RGS10 KD BV2 microglia (Meso-Scale Discovery immunoassay); type: cell-based, mouse; details: 5 mM, 18 hours
# Method: as §1, §2, §3, §4
structure (smiles),measurement,setting,value
"CC(=O)N[C@@H](CS)C(=O)O [NAC, N-acetylcysteine]",TNF-α production after treatment vs no treatment,Control BV2 cells,statistically significant reduction in level of TNF-α production
same,TNF-α production after treatment vs no treatment,RGS10 KD BV2 cells,statistically significant reduction in level of TNF-α production
